From US20230181485A1, “Uses and Formulations of Cannabinoids” (priority 2020, published 2023)
Like-named read-outs stand apart in the source and are kept apart here.

Assays:
IL-6 secretion = conditions: majority of cellular models; cited from earlier work
[1] = cited from earlier work
[2] = test system: SARS-CoV-2 virus (isolate BetaCoV/Germany/BavPat1/2020 p. 1); test: antiviral assay, Vero E6 cells with SARS-CoV-2, focus forming units; type: cell-based; conditions: 24 h
[3] = test system: CD83 dendritic cell activation marker; conditions: dendritic cells from individuals with HIV infection; cited from earlier work
[4] = test system: LPS-induced acute lung injury; conditions: 20 mg/kg, 6 h after LPS; cited from earlier work
[5] = test system: ischemia-reperfusion-induced kidney injury; conditions: 10 mg/kg after induced kidney injury; cited from earlier work
[6] = test system: LPS-induced acute lung injury; conditions: cited from earlier work
human neutrophils = conditions: cited from earlier work
[7] = test system: chemically induced acute hepatitis; conditions: 25 mg/kg; cited from earlier work
[8] = test system: activated memory T cell line; conditions: 1-5 μmol/l, cited from earlier work
human mononuclear cells = conditions: nanomolar or micromolar concentrations; cited from earlier work
[9] = systemic exposure after i.p. and oral application in mice and rats (Deiana et al.); type: in vivo; conditions: 20 mg/kg, assuming dose-proportional plasma concentrations
Method: A comparative investigation for systemic exposure after i.p. and oral application of CBD in mice and rats has shown that 120 mg/kg as a single dose leads to a maximum plasma concentration of 14,000 ng/ml in mice (S. Deiana et al. (2012). Plasma and brain pharmacokinetic profile of cannabidiol (CBD), cannabidivarine (CBDV), Delta(9)-tetrahydrocannabivarin (THCV) and cannabigerol (CBG) in rats and mice following oral and intraperitoneal administration and CBD action on obsessive-compulsive behaviour. Psychopharmacology (Berl) 219(3): 859-73).

microglial cells = conditions: 1-16 μmol/l; cited from earlier work
[10] = healthy rats, cited from earlier work
[11] = mice; 120 mg/kg single dose; cited from earlier work
IL-6 receptor = molecular target: T1, IL-6 receptor (Homo sapiens, UniProt P08887); conditions: preliminary clinical data; cited from earlier work
T1 construct: host or cells: patients (in vivo)
T1 sequence (P08887 20-468): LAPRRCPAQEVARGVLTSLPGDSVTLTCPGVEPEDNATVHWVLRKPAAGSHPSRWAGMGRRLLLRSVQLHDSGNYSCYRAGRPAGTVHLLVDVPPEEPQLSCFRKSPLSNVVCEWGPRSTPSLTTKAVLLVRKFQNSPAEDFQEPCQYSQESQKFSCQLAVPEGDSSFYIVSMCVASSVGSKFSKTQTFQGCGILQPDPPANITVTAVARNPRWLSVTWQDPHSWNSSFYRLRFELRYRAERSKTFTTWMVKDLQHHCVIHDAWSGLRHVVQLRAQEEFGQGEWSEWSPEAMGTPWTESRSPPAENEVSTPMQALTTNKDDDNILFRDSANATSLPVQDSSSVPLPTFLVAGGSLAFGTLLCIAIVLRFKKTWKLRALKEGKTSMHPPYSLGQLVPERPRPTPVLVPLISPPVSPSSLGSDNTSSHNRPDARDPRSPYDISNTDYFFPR

C=C(C)[C@@H]1CCC(C)=C[C@H]1c1c(O)cc(CCCCC)cc1O [CBD, 2-[(1R,6R)-3-methyl-6-(1-methylethenyl)-2-cyclohexen-1-yl]-5-pentyl-1,3-benzenediol]
effective concentration for suppressive effect on IL-6 secretion (IL-6 secretion): ~5 µM
log P [1]: about 6.1
FFU values (viral activity of SARS-CoV-2 in vitro) ([2]; 0.25-5 μM): reduce the FFU values in a dose dependent manner
IC50 ([2]; Severe acute respiratory syndrome coronavirus 2, Vero C1008, Vero E6 cells, 5 μM values excluded, read-out: IC50 of inhibition of viral activity): 789 nM
CD83 dendritic cell activation marker [3]: suppresses
mechanical lung function, leukocyte migration, myeloperoxidase activity, vascular permeability, cytokines/chemokines [4]: improved mechanical lung function
effect on induced kidney injury (Treg17/Th17 levels) [5]: renoprotective
number of leukocytes including macrophages and neutrophils in bronchoalveolar lavage fluid ([6]; 20 mg/kg, mice after LPS-induced lung inflammation): decreases
total leukocytes migration, myeloperoxidase activity, pro-inflammatory cytokine production including TNF-α and IL-6 and vascular permeability ([6]; 0.3-80 mg/kg intraperitoneal, 60 minutes before LPS instillation): significantly decreased
dose at which effects reached a nearly maximum extent ([6]; prophylactic application, intraperitoneal): 20 mg/kg
migration of human neutrophils (human neutrophils): inhibits
expression of MDSCs [7]: induces
pro-inflammatory cytokines such as IL-2, TNF-α, and IL-6 [7]: reduction
autoantigen-specific Th17 cell phenotype (IL-17) ([8]; dose-dependently): reduced
IL-6 production and secretion [8]: decreased
production of IL-10 [8]: increased
release of pro-inflammatory cytokines (human mononuclear cells): suppressed
target peak exposure [9]: 2,300 ng/ml
apoptosis in microglial cells (microglial cells): induces apoptosis
numbers of NK cells and NKT cells ([10]; 2.5 mg/kg per day): increased
numbers of NK cells and NKT cells ([10]; 5 mg/kg per day): not affected
number of T cells including T helper cells and cytotoxic T cells and of B cells ([10]; daily 5 mg/kg): significantly reduced
maximum plasma concentration [11]: 14,000 ng/ml

tocilizumab: humanized monoclonal antibody against the IL-6 receptor
clinical effect in patients with severe SARS-CoV-2 pneumonia (IL-6 receptor): beneficial effects
